Source: patent US5288751A, “[(Substituted) phenyalkyl]furylalkynyl-and [substituted) phenyalkyl] thienylalkynyl-N-hydroxyurea inhibitors or leukotriene biosynthesis” (Abbott Laboratories, priority 1992, dated 1994)

Tests used:
[1] = system: Stimulated LTB4 Formation in Human Whole Blood; assay: Calcium ionophore (A23187)-induced LTB4 biosynthesis in human whole blood (in vitro leukotriene biosynthesis inhibition); type: cell-based; conditions: human heparinized whole blood, A23187 8.3 μM, 30 minutes; for IC50: 15 min preincubation at 37° C.; for % inhibition of stimulated LTB4 formation in human whole blood: test concentration not stated
Procedure: Inhibition of leukotriene biosynthesis was evaluated in an assay, involving calcium ionophore-induced LTB4 biosynthesis expressed human whole blood. Human heparinized whole blood was preincubated with test compounds or vehicle for 15 min at 37° C. followed by calcium ionophore A23187 challenge (final concentration of 8.3 μM) and the reaction terminated after 30 minutes by adding two volumes of methanol containing prostaglandin B2 as an internal recovery standard. The methanol extract was analyzed for LTB4 using a commercially available radioimmunoassay.
In Vitro Inhibitory Potencies Against Stimulated LTB4 Formation

[2] = system: biosynthesis of leukotrienes (peritoneal fluid leukotriene levels); assay: Inhibition of leukotriene biosynthesis in vivo, rat peritoneal anaphylaxis model, oral administration; conditions: single 30 μmol/kg oral dose, gavage one hour prior to antigen challenge, 15 minutes after challenge
Procedure: Inhibition of the biosynthesis of leuktrienes in vivo after oral administration of compound was determined using a rat peritoneal anaphylaxis model in a similar manner as that described by Young and coworkers (Young, P. R.; Dyer, R. D.; Carter, G. W., Fed. Proc., Fed. Am. Soc. Exp. Biol. 1985, 44: 1185). In this model rats were injected intraperitoneally (ip) with rabbit antibody to bovine serum albumin (BSA) and three hours later injected ip with BSA to induce an antigen-antibody response. Rats were sacrificed 15 minutes after this challenge and the peritoneal fluids were collected and analyzed for leukotriene levels. Test compounds were administered by gavage one hour prior to the antigen challenge. Percent inhibition values were determined by comparing the treatment group to the mean of the control group. Compounds of this invention prevent the formation of leukotrienes in this model after oral administration in a range of 1-200 μmol/kg.

| Structure (SMILES) | IC50 [1] [µM] | % inhibition of leukotriene formation in vivo [2] [%] | % inhibition of stimulated LTB4 formation in human whole blood [1] [%] |
| --- | --- | --- | --- |
| CC(C#Cc1ccc(/C=C/c2ccc(F)cc2)o1)N(O)C(N)=O (stereo not drawn) [Example 5, N-[4-(5-{2-[4-Fluorophenyl]ethenyl}fur-2-yl)-1-methyl-2-propynyl]-N-hydroxyurea] | 0.62 |  |  |
| CC(C#Cc1ccc(Cc2ccc(F)cc2)o1)N(O)C(N)=O (stereo not drawn) [Example 1, N-{3-[5-(4-Fluorophenylmethyl)fur-2-yl]-1-methyl-2-propynyl}-N-hydroxyurea] | 0.06 | 68 |  |
| CC(C#Cc1ccc(/C=C/c2ccccn2)o1)N(O)C(N)=O (stereo not drawn) [Example 7, N-Hydroxy-N-[4-(5-{2-[2-pyridyl]ethenyl}fur-2-yl)-1-methyl-2-propynyl]urea] | 0.35 |  |  |
| Cc1ccc(/C=C/c2ccc(C#CC(C)N(O)C(N)=O)o2)cc1 (stereo not drawn) [Example 9, N-Hydroxy-N-[4-(5-{2-[5-methylphenyl]ethenyl}fur-2-yl)-1-methyl-2-propynyl]urea] | 0.3 |  |  |
| CC(C#Cc1ccc(/C=C/c2cccnc2)o1)N(O)C(N)=O (stereo not drawn) [Example 4, N-Hydroxy-N-[4-(5-{2-[3-pyridyl]ethenyl}fur-2-yl)-1-methyl-2-propynyl]urea] |  |  | 39 |
| CC(C#Cc1ccc(/C=C/c2ccccc2)o1)N(O)C(N)=O (stereo not drawn) [Example 6, N-Hydroxy-N-[4-(5-{2-phenylethenyl}fur-2-yl)-1-methyl-2-propynyl]urea] |  |  | 40 |
| CC(C#Cc1ccc(Cc2ccc(F)cc2)s1)N(O)C(N)=O (stereo not drawn) [Example 12, N-{3-[5-(4-Fluorophenylmethyl)-2-thienyl]-1-methyl-2-propynyl}-N-hydroxyurea] | 0.07 | 72 |  |
| CC(C#Cc1ccc(C(=O)c2ccc(F)cc2)o1)N(O)C(N)=O (stereo not drawn) [Example 2] |  |  | 72 |
| C[C@H](C#Cc1ccc(Cc2ccc(F)cc2)s1)N(O)C(N)=O [Example 13, (R)-N-{3-[5-(4-Fluorophenylmethyl)-2-thienyl]-1-methyl-2-propynyl}-N-hydroxyurea] | 0.07 |  |  |
| CC(C#Cc1ccc(/C=C/c2ccc(F)cc2)s1)N(O)C(N)=O (stereo not drawn) [Example 8] |  |  | 62 |
